Results on 1 substance are retold here after patent US11077167B2, “Agent for promoting skeletal muscle injury repair” (Osaka University, priority 2017, dated 2021).

Test [1] concerns Human skeletal muscle myoblasts (HSMMs). Description: Myogenin expression by immunofluorescence staining. It counts as cell-based. The settings on record: SV peptide 20 ng/mL, HS group = 2% horse serum positive control. From the text:
(§1) Human skeletal muscle myoblasts (HSMMs) were purchased from Lonza and used. The medium used for HSMM culture was the supplier's recommended medium (Skeletal Muscle Growth Media-2 supplemented with SingleQuots Kit).
Myogenin is known to be expressed when myoblasts differentiate into myotube cells. In this experiment, myogenin expression was used as an index to examine the effect of the SV peptide on the differentiation of human skeletal muscle myoblasts.
Human skeletal muscle myoblasts were cultured in a medium containing the SV peptide (20 ng/mL, SV group), the random SV (20 ng/mL, random SV group), or PBS (PBS group) for 48 or 72 hours. For a positive control, human skeletal muscle myoblasts were cultured in an F-12/DMEM medium containing 2% horse serum, which is known to facilitate myoblast differentiation into myotube cells (Moira A. Lawson et al.: Cells Tissues Organs 2000; 167: 130-137) (HS group). After 48- or 72-hour culture, the cells were immunostained with an anti-human myogenin antibody by the usual method and observed with a fluorescence microscope.

In test [2] the test system is muscle injury model rats (incised masseter muscles on both sides). Description: Histological staining of masseter muscles at postoperative week 8, Example 2. The test is classed as in vivo, Jcl:SD rats. As to conditions: sirius red staining. As for the experimental part: (§2) Incisions were made in masseter muscles on both sides in Jcl:SD rats (10 weeks old) under anesthesia in the same manner as in Example 1. Immediately after muscle incision, 1 mL each of the SV peptide (20 ng/mL) or 1 mL each of PBS was intramuscularly administered into several sites surrounding the cut surfaces. The incision on each side was made along a straight line connecting the lateral angle of the eye and the mandibular angle, extending in depth from the fascia on the skin side to the lateral periosteum on the mandibular ramus. The cut surfaces were subjected to electrocoagulation with an electric scalpel for the arrest of bleeding (see FIG. 1). […]
Each rat was euthanized at postoperative week 8, and the masseter muscles on both sides were excised. […] Histological characteristics of regenerated muscle fibers at the muscle injury site were assessed on the HE-stained sections. The amount of muscle fibers formed and the diameter of the muscle fibers in the tissue were measured on the sirius red-staining sections.

Another test has as its system angiogenesis. The settings on record: Patent Literature 1, Non Patent Literature 1 and 2; compared with VEGF; cited from earlier work.
Test [3] deals with Human skeletal muscle satellite cells (HskMSCs). Description: Chemotactic capacity (Chemotaxicell membrane). It counts as cell-based. The settings on record: SV peptide 20 ng/mL as chemoattractant; 12 hours; vs PBS or random SV. How it is done:
(§3) Human skeletal muscle satellite cells (HskMSCs) were purchased from ScienCell Research Laboratories and used. The medium used for HskMSC culture was the supplier's recommended medium (Skeletal Muscle Cell Medium containing 5% FBS, Skeletal Muscle Cell Growth Supplement, and penicillin/streptomycin solution).
(§4) A polycarbonate membrane with a pore size of 8 μm (Chemotaxicell: Kurabo Industries LTD.) was immersed in a 10 μg/mL fibronectin solution at room temperature for 30 minutes for coating the membrane. A medium containing the SV peptide (20 ng/mL, SV group), the random SV (20 ng/mL, random SV group), or PBS (PBS group) as a chemoattractant was added to a lower chamber. On an upper chamber, human skeletal muscle satellite cells and human skeletal muscle myoblasts were separately seeded at 2.0×10^4 cells/mL in DMEM containing 0.1% BSA. A pair of chambers was incubated at 37° C. for 12 hours. The cells on the upper surface of the membrane were removed with a swab, and the membrane was fixed with a 10% neutral buffered formalin solution (Wako Pure Chemical Industries, Ltd.) and stained with hematoxylin. The number of cells migrated to the lower surface of the membrane was measured under an optical microscope.

Test [4] shares this test system. The experiment in a line: Cell migratory capacity (cell-denuded area). The test is classed as cell-based. The settings on record: SV peptide 20 ng/mL.
Source text: as §3
Human skeletal muscle satellite cells and human skeletal muscle myoblasts were separately cultured on 60-mm (diameter) dishes (Iwaki) to 100% confluency. From each dish, a 2-mm-wide strip of cells were removed, and the medium was replaced with a medium containing the SV peptide (20 ng/mL, SV group), the random SV (20 ng/mL, random SV group), or PBS (PBS group). Thereafter, culture was continued. Images were taken with a digital camera mounted on a phase-contrast microscope every 12 hours. The cell-denuded area was measured using the image-analysis software ImageJ (NIH, USA). The cell migration percentage was determined by calculating the percentage of reduction in the cell-denuded area relative to the value immediately after cell removal.

Test [5] relates to Human skeletal muscle myoblasts (HSMMs). Description: Chemotactic capacity (Chemotaxicell membrane). It counts as cell-based. The settings on record: SV peptide 20 ng/mL as chemoattractant; 12 hours; vs PBS or random SV. As for the experimental part: as §1, §4
For test [6] the test system is unchanged. The experiment in a line: Cell proliferative capacity (WST-1 assay). The test is classed as cell-based. As to conditions: SV peptide 20 ng/mL. How it is done:
as §1
Human skeletal muscle satellite cells and human skeletal muscle myoblasts were separately seeded at 1.0×10^4 cells/mL in each well of non-treated polystyrene 96-well cell culture plates (Falcon). The SV peptide (20 ng/mL, SV group), the random SV (20 ng/mL, random SV group), or PBS (PBS group) was added to the medium. The plates were cultured at 37° C. in a 5% CO2 atmosphere. After 0, 12, 24, 48, and 72 hours, cell proliferation was assessed using Premix WST-1 Cell Proliferation Assay System (Takara Bio, Japan).

Test [7] deals with muscle injury model rats (incised masseter muscles on both sides). The experiment in a line: Electrophysiological experiment (masseter EMG), Example 2. It counts as in vivo, Jcl:SD rats. As for the experimental part: as §2
In the same manner as in Example 1, bipolar needle electrodes were retained in the masseter muscles on both sides, and myogenic potential signals received through connectors fixed to both sides of the parietal bone were monitored. EMG data were recorded at postoperative weeks 1, 2, 4, 6, and 8.
The integral of bursts in the left (administration side) masseter muscle in the SV group or the PBS group was calculated as a measure of muscle activity and represented in FIG. 9 as a relative value compared to the 1-week postoperative value, which was assumed as 1. […]

With SVVYGLR [SV peptide], the “percentage of myogenin-positive cells” value in test [1] (48-hour culture) is “significantly higher than that in the PBS group or the random SV group, but significantly lower than that in the HS group”; in test [1] (72-hour culture) it was “significantly higher than that in the PBS group or the random SV group, and comparable to that in the HS group”. Besides, the “amount of scar formation (area of scar tissue formed on the cut surfaces)” value in test [2] (SV peptide administration side vs PBS administration side) was “remarkably reduced from that on the PBS administration side in the PBS group”. In addition, in test [2] (SV side vs control side in SV group), the “diameter of the muscle fibers” value is “significantly larger than that on the control side in the same group”. Also, in the test on angiogenesis, the angiogenic activity result is given as “high angiogenic activity that is comparable to that of VEGF”. Moreover, the “chemotactic capacity (number of cells migrated to lower surface of membrane)” value in test [3] is reported as “tended to have a higher chemotactic capacity than that of the counterpart in the PBS group or the random SV group, but there was no significant intergroup difference”; in test [5], “significantly higher chemotactic capacity than that of the counterpart in the PBS group or the random SV group”. The cell migratory capacity entry in test [4] is recorded as “did not affect”. Also, the cell proliferative capacity entry in test [6] (time course within SV group) is “significantly increased after 24-hour treatment with the SV peptide and then reached a plateau”; in test [6] (vs PBS group or random SV group, 12 hours and thereafter) it was “significantly higher at 12 hours post-treatment and remained significantly higher thereafter than that in the PBS group or the random SV group”. Besides, in test [7] (postoperative weeks 1 and 8, SV peptide into left masseter, right incision only), the chewing side preference entry is “increase in left-side chewing preference over time postoperatively”. In addition, the “integral of bursts in the left (administration side) masseter muscle” value in test [7] (weeks 4, 6, and 8, relative to 1-week postoperative value = 1, SV group vs PBS group) is on record as “significantly greater values than those in the PBS group”.
